The text below walks through data of ChEMBL document CHEMBL1152840, “Antileukotrienic phenethylamido derivatives of arylalkanoic acids in the treatment of ulcerative colitis” (Eur J Med Chem, 2009).

The nature of data set [1]: Lipophilicity, log K by HPLC method. The data set is classed as physicochemical.
A short description of data set [2]: Antileukotrienic activity in rat PMNC assessed as inhibition of Ca2+ ionophore A23187-induced LTB4 production by RIA. The data set is classed as functional.
In data set [3] the test system is Rattus norvegicus. Put plainly: Antiinflammatory activity in rat assessed as inhibition of carrageenan-induced edema at 100 mg/kg relative to untreated control. The data set is classed as functional.
In data set [4] the test system is Mus musculus. As to the kind of experiment: Antiinflammatory activity in mouse assessed as inhibition of arachidonic acid-induced ear lobe edema at 200 mg/kg, po administered 1 hr before arachidonic acid challenge measured after 1 hr relative to untreated control. The data set is classed as functional.
Data set [5] concerns Mus musculus. Put plainly: Antiinflammatory activity in mouse assessed as inhibition of arachidonic acid-induced ear lobe hyperemia at 200 mg/kg, po administered 1 hr before arachidonic acid challenge measured after 1 hr relative to untreated control. The format is functional.
Data set [6] concerns Mus musculus. As to the kind of experiment: Antiinflammatory activity against dextrane disodium sulfate-induced ulcerative colitis in BALB/c mouse assessed as diseased animal with stool consistency at 250 mg/kg administered 1 hr before dextrane disodium sulfate challenge. The format is functional.
The test system of data set [7] is Mus musculus. As to the kind of experiment: Antiinflammatory activity against dextrane disodium sulfate-induced ulcerative colitis in BALB/c mouse assessed as diseased animal with rectal prolapse at 250 mg/kg administered 1 hr before dextrane disodium sulfate challenge. The format is functional.
Data set [8] concerns Mus musculus. As to the kind of experiment: Antiinflammatory activity against dextrane disodium sulfate-induced ulcerative colitis in BALB/c mouse assessed as diseased animal with small intestine bleeding at 250 mg/kg administered 1 hr before dextrane disodium sulfate challenge. The format is functional.
In data set [9] the test system is Mus musculus. As to the kind of experiment: Antiinflammatory activity against dextrane disodium sulfate-induced ulcerative colitis in BALB/c mouse assessed as diseased animal with large intestine bleeding at 250 mg/kg administered 1 hr before dextrane disodium sulfate challenge. The format is functional.
In data set [10] the test system is Mus musculus. As to the kind of experiment: Antiinflammatory activity against dextrane disodium sulfate-induced ulcerative colitis in BALB/c mouse assessed as length of colon at 250 mg/kg administered 1 hr before dextrane disodium sulfate challenge. The format is functional.

Consider `COc1cc(/C=C/C(=O)O)ccc1OCCCCOc1ccc(CC(=O)N(C)CCc2ccccc2)cc1`, for which the “log K” value in [1] is listed as 0.274. Moreover, in [2], the IC50 – broadly, the concentration at which inhibition is half-maximal – worked out at 13 µM. The inhibition in vivo – broadly, the change of the read-out against control, counted positive when it falls – at 100 mg/kg in data set [3] is 5.5%. The figures for the inhibition in vivo at 200 mg/kg in data set [4] and in data set [5] were 23% and 0%, respectively. In addition, the Activity was determined as 80% in [6]; 0% in data set [7]; 0% in [8]; 100% in data set [9]; 6.8 cm in data set [10].
As to `CC(C(=O)O)c1cccc2ccc(OCCCCOc3ccc(CC(=O)NCCc4ccccc4)cc3)cc12` (stereo not given), in [1], the “log K” value worked out at 0.755. In [2], the IC50 stood at 5.6 µM. Also, in data set [3], the inhibition in vivo at 100 mg/kg is 22%. Moreover, the inhibition in vivo at 200 mg/kg worked out at 26% in data set [4] and 3.3% in [5]. The Activity in [6] is on record as 20%; in [7] it was 0%; in [8] it was 0%; in [9] it was 80%; in data set [10] it was 7.5 cm.
